Assay results as given in patent publication USRE47493E1, “Substituted bicyclic dihydropyrimidinones and their use as inhibitors of neutrophil elastase activity” (Boehringer Ingelheim International GmbH, priority 2014, dated 2019).

Key:
[1] = target: Human neutrophil elastase (Homo sapiens (Human), UniProt P08246); experiment: Human Neutrophil Elastase Assay; format: biochemical; settings: human neutrophil elastase, substrate MeOSuc-Ala-Ala-Pro-Val-AMC, pH 7.5; read-out: IC50
Procedure: Human Neutrophil Elastase Assay
Materials: Human neutrophil elastase was purchased from Calbiochem (Cat.No.: 324681) and the elastase substrate MeOSuc-Ala-Ala-Pro-Val-AMC from Bachem (Cat.No.: I-1270). All other materials were of the highest grade commercially available.
The following buffers were used: Compound buffer: 100 mM Tris, 500 mM NaCl, adjusted to pH 7.5; Assay buffer: 100 mM Tris, 500 mM NaCl, adjusted to pH 7.5, containing 0.01% BSA.
Assay conditions: Test compounds were prediluted in DMSO and subsequently in compound buffer (5% DMSO final). 5 μL of these compound dilutions were mixed with 10 μl Neutrophil elastase (9 ng/ml in assay buffer) in a black 384 well OptiPlate (Perkin Elmer, Cat No.: 6007270) and incubated for 15 min at room temperature. Subsequently 10 μL substrate solution in assay buffer were added (250 nM final concentration) and the plates were incubated for 60 min at room temperature. After inactivation of the enzyme, fluorescence intensities were measured at 380 nm excitation and 460 nm emission wavelengths.
Each plate contains wells with a high value control (DMSO+enzyme+substrate) and wells with a low value control (DMSO+inactivated enzyme+substrate). IC50 values were estimated using a sigmoidal concentration response curve with variable slope. Means of low values were taken as 0%, means of high values as 100%.

[2] = target: neutrophil elastase in human plasma (Homo sapiens (Human), UniProt P08246); experiment: Assay for the Determination of Neutrophil Elastase Inhibitory Activity in Human Plasma; format: biochemical; settings: neutrophil elastase enriched human plasma (zymosan-stimulated blood)
Procedure: Assay for the Determination of Neutrophil Elastase Inhibitory Activity in Human Plasma
Citrated blood from human healthy donors is mixed with zymosan suspension and incubated at room temperature. This leads to the stimulation of neutrophils and the release of neutrophil elastase into the plasma. The stimulated blood is centrifuged to generate the neutrophil elastase enriched plasma.
Preparation of Zymosan Working Solution:
• single 45 ml blood sample is taken into a 50 ml tube containing citrate (3.13%, 5 mL) and the tube is gently inverted 4 times. • Immediately after blood sampling, zymosan working solution (5 mL) is added. • After the addition of zymosan working solution, the tubes are capped, mixed gently and incubated at 22° C. for 15 min on a shaker at 20 rpm. • Make 10 ml aliquots after the incubation time. • Centrifuge the 15 ml tubes at 800 g for […] at 4° C. in a Jouan centrifuge. • Harvest the plasma and make 1-5 ml aliquots. • Store the plasma at −80° C.
Various concentrations of the neutrophil elastase inhibitor are incubated with plasma. Subsequently, the enzyme activity is measured using the fluorogenic substrate MeOSuc-Ala-Ala-Pro-Val-AMC (Bachem Cat. No. 1-1270, substrate concentration: 250 μM, pH 7.5, 25 mM TRIS buffer, 250 mM NaCl) in analogous fashion as described for the human neutrophil assay. A dose response curve is generated to calculate the EC50 of the inhibitor. The analysis of the data is performed by the calculation of the percentage of fluorescence in the presence of the test compound compared to the fluorescence of the vehicle control after subtracting the background fluorescence: An inhibitor of the neutrophil elastase enzyme will give values between 100% control (no inhibition) and 0% control (complete inhibition). The human plasma shift of selected compounds can be calculated using the following equation: Human plasma shift=(EC50 in human plasma assay)/(IC50 in human neutrophil elastase assay) The EC50 values of selected compounds in the human plasma assay described above are listed in Table 14.

Caco-2 cell monolayers = experiment: Assay for Determination of Drug Transport Across Human CACO-2 Cells; format: in vitro ADME
Excerpt: Assay for Determination of Drug Transport Across Human CACO-2 Cells
The assay provides information on the potential of a compound to pass the cell membrane, on the extent of oral absorption as well as on whether the compound is actively transported by uptake and/or efflux transporters. For the measurement of permeability across polarized, confluent human cancer colon carcinoma cells 2 (Caco-2) cell monolayers grown on permeable filter supports are used as the in vitro absorption model. Apparent permeability coefficients (PE) of the compounds across the Caco-2 monolayers are measured (pH 7.2, 37° C.) in apical-to-basal (AB) (absorptive) and basal-to-apical (BA) (secretory) transport direction. AB permeability (PEAB) represents drug absorption from the intestine into the blood and BA permeability (PEBA) drug secretion from the blood back into the intestine via both passive permeability as well as active transport mechanisms mediated by efflux and uptake transporters that are expressed on the Caco-2 cells. The compounds are assigned to permeability/absorption classes by comparison of the AB permeabilities with the AB permeabilities of reference compounds with known in vitro permeability and oral absorption in the human. Identical or similar permeabilities in both transport directions indicate passive permeation, vectorial permeability points to additional active transport mechanisms. […] Active transport is concentration-dependently saturable.
Caco-2 cells (1−2*10^5 cells/cm^2 area) are seeded on filter inserts (Costar transwell polycarbonate or PET filters, […] pore size) and cultured (DMEM) for 10 to 25 days. Compounds are dissolved in appropriate solvent (like DMSO, 1-20 mM stock solutions). Stock solutions are diluted with HTP-4 buffer (128.13 mM NaCl, 5.36 mM KCl, 1 mM MgSO4, 1.8 mM CaCl2, 4.17 mM NaHCO3, 1.19 mM Na2HPO4×7H2O, 0.41 mM NaH2PO4×H2O, 15 mM HEPES, 20 mM glucose, pH 7.2) to prepare the transport solutions (typically […] compound, final DMSO <=0.5%). The transport solution (TL) is applied to the apical or basolateral donor side for measuring A-B or B-A permeability (3 filter replicates), respectively. The receiver side contains HTP-4 buffer supplemented with 2% BSA. Samples are collected at the start and end of experiment from the donor and at various time intervals for up to 2 hours also from the receiver side for concentration measurement by LC-MS/MS or scintillation counting. Sampled receiver volumes are is replaced with fresh receiver solution.
The apparent permeability coefficients (PEAB and PEBA) and efflux ratios (PEBA/PEAB) of selected compounds in the Caco-2 drug transport assay described above are listed in Table 17.

[3] = Assay for Determination of Aqueous Solubility; format: physicochemical; settings: McIlvaine buffer pH 6.8, 2.5% DMSO, 24 h
Procedure: Assay for Determination of Aqueous Solubility
The aqueous solubility of a compound is determined by comparing the amount dissolved in aqueous buffer (containing 2.5% DMSO) to the amount dissolved in an acetonitrile/water (1/1) solution. Starting from a 10 mM DMSO stock solution, aliquots are diluted with acetonitrile/water (1/1) and Mcllvaine buffer pH 6.8, respectively. After 24 h of shaking, the solutions or suspensions are filtered and analyzed by LC-UV. The amount dissolved in buffer is compared to the amount dissolved in the acetonitrile/water (1/1) solution. Solubility is measured from 0.001 to 0.125 mg/ml at a DMSO concentration of 2.5%. If more than 90% of the compound is dissolved in buffer, the value is marked with “>”.

[4] = Assay for the Determination of Metabolic Stability with Human Liver Microsomes; format: in vitro ADME; settings: pooled human liver microsomes, 37° C., NADPH
Procedure: Assay for the Determination of Metabolic Stability with Human Liver Microsomes
The metabolic degradation of the test compound is assayed at 37° C. with pooled human liver microsomes. The final incubation volume of […] per time point contains TRIS buffer pH 7.6 (0.1 M), magnesium chloride (5 mM), microsomal protein (1 mg/ml) and the test compound at a final concentration of […]. Following a short preincubation period at 37° C., the reactions are initiated by addition of beta-nicotinamide adenine dinucleotide phosphate, reduced form (NADPH, 1 mM) and terminated by transfering an aliquot into acetonitrile after different time points. Additionally, the NADPH-independent degradation is monitored in incubations without NADPH, terminated at the last time point. The rol remaining test compound after NADPH independent incubation is reflected by the parameter c(control) (metabolic stability). The quenched incubations are pelleted by centrifugation (10′000 g, 5 min) An aliquot of the supernatant is assayed by LC-MS/MS for the amount of parent compound.
The half-life (t1/2 INVITRO) is determined by the slope of the semilogarithmic plot of the concentration-time profile. The intrinsic clearance (CL_[…]) is calculated by considering the amount of protein in the incubation: CL_[…][μl/min/mg protein]=(ln 2/(half-life [min]*protein content [mg/ml]))*1′000.
The half-life (t1/2 INVITRO) values of selected compounds in the metabolic stability assay described above are listed in Table 15.

[5] = Assay for the Determination of Metabolic Stability with Human Hepatocytes; format: in vitro ADME; settings: scaled with well stirred model
Procedure: Assay for the Determination of Metabolic Stability with Human Hepatocytes
The metabolic degradation of the test compound is assayed in a human hepatocyte suspension. Human hepatocytes (typically cryopreserved) are incubated in an appropriate buffer system (e.g. Dulbecco's modified eagle medium plus 3.5 μg glucagon/500 mL, 2.5 mg insulin/500 mL and 3.75 mg/500 mL hydrocortison) containing 5% species serum. Following a (typically) […] preincubation in an incubator (37° C., 10% CO2), 5 μl of test compound solution (80 μM; from 2 mM stock solution in DMSO diluted 1:25 with medium) are added into 395 μl hepatocyte suspension (cell density in the range 0.25-5*10^6 cells/mL, typically 1*10^6 cells/mL; final concentration of test compound 1 μM, final DMSO concentration […]). The cells are incubated for six hours (incubator, orbital shaker) and samples (25 μl) are taken at 0, 0.5, 1, 2, 4 and 6 hours. Samples are transferred into acetonitrile and pelleted by centrifugation (5 min). The supernatant is transferred to a new 96-deepwell plate, evaporated under nitrogen and resuspended. The decline of parent compound is analyzed by LC-MS/MS.
The intrinsic clearance CL_[…] is calculated as follows: CL_[…]=Dose/AUC=(C0/CD)/(AUD+clast/k)*1′000/60 (C0: initial concentration in the incubation [μM], CD: cell density of vital cells [10^6 cells/mL], AUD: area under the data [μM*h], clast: concentration of last data point [μM], k: slope of the regression line for parent decline [h^−1])
The calculated in vitro hepatic intrinsic clearance can be scaled up to the intrinsic in vivo hepatic clearance and used to predict hepatic in vivo blood clearance (CL) by the use of a is liver model (well stirred model): CL_[…]_INVIVO [ml/min/kg]=(CL_[…] [μL/min/10^6 cells]* hepatocellularity[10^6 cells/g liver]*liver factor[g/kg bodyweight])/1′000 CL[ml/min/kg]=CL_[…]_INVIVO [ml/min/kg]*hepatic blood flow [ml/min/kg]/(CL_[…]_INVIVO [ml/min/kg]+hepatic blood flow [ml/min/kg]) Qh[%]=CL[ml/min/kg]/hepatic blood flow[ml/min/kg]) (Hepatocellularity, human: 120*10^6 cells/g liver; lver factor, human: 25.7 g/kg bodyweight; blood flow, human: 21 ml/(min*kg))
The predicted human hepatic in vivo blood clearance (CL) of selected compounds in the metabolic stability assay described above are listed in Table 16.

Human neutrophil elastase, sequence (P08246 30-267): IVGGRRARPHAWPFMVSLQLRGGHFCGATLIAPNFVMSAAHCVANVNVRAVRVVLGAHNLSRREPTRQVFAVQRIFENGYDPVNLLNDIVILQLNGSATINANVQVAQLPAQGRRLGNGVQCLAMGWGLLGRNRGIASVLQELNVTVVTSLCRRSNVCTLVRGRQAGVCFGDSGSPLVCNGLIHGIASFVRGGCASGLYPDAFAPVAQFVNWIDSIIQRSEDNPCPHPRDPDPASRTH
neutrophil elastase in human plasma, sequence (P08246 30-267): as above

IC50 [1]	EC50 [2]	Efflux ratio (Caco-2 cell monolayers; Caco-2, PEBA/PEAB)	PEAB (Caco-2 cell monolayers; Caco-2, apical-to-basal, pH 7.2, 37° C.)	PEBA (Caco-2 cell monolayers; Caco-2, basal-to-apical, pH 7.2, 37° C.)	Aqueous solubility [3]	t1/2 INVITRO [4]	CL (predicted human hepatic in vivo blood clearance) [5]	Structure (SMILES)
< 1 nM	1 nM	5.4	15 ×10⁻⁶ cm/s	81 ×10⁻⁶ cm/s	73 µg/mL			CCNC(=O)N1C(=O)N(c2cccc(C(F)(F)F)c2)C2=C(C(=O)CCC2)C1c1ccc(C#N)cc1S(C)(=O)=O (stereo not shown) [Example 47.1]
1.2 nM	3 nM				56 µg/mL	>2.17 h	3 mL/min/kg	CS(=O)(=O)c1cc(C#N)ccc1C1C2=C(CCCC2=O)N(c2cccc(C(F)(F)F)c2)C(=O)N1CCCO (stereo not shown) [Example 58.2]
< 1 nM	1 nM				66 µg/mL	>2.17 h	0 mL/min/kg	CS(=O)(=O)c1cc(C#N)ccc1[C@@H]1C2=C(CCCC2=O)N(c2cccc(C(F)(F)F)c2)C(=O)N1C(=O)NC1CCOCC1 [Example 75.16]
